tested on: sweetpotato whitefly (Bemisia tabaci (Gennadius)); experiment: Test F: control of sweetpotato whitefly on cotton plant (spray, contact and/or systemic); assay type: in vivo; conditions: 312 h
Protocol: (§1) Test compounds were formulated using a solution containing 10% acetone, 90% water and 300 ppm X-77® Spreader Lo-Foam Formula non-ionic surfactant containing alkylarylpolyoxyethylene, free fatty acids, glycols and isopropanol (Loveland Industries, Inc. Greeley, Colo., USA). The formulated compounds were applied in 1 mL of liquid through a SUJ2 atomizer nozzle with 1/8 JJ custom body (Spraying Systems Co. Wheaton, Ill., USA) positioned 1.27 cm (0.5 inches) above the top of each test unit. Test compounds were sprayed at the rates indicated, and each test was replicated three times.
For evaluating control of the sweetpotato whitefly (Bemisia tabaci (Gennadius)) through contact and/or systemic means, the test unit consisted of a small open container with a 12-14-day-old cotton plant inside. Prior to the spray application, both cotyledons were removed from the plant, leaving one true leaf for the assay. Adult whiteflies were allowed to lay eggs on the plant and then were removed from the test unit. Cotton plants infested with at least 15 eggs were submitted to the test for spraying.
Test compounds were formulated and sprayed at 250 and/or 50 ppm. After spraying, the test units were allowed to dry for 1 hour. The cylinders were then removed, and the units were taken to a growth chamber and held for 13 days at 28° C. and 50-70% relative humidity. Each test unit was then visually assessed for insect mortality.

SMILES | mortality at 250 ppm [%]
O=C(NCCCl)c1ccc2nn(-c3cccnc3)cc2c1 [Compound 463] | ≥ 50

same assay, conditions: 312 h, sprayed at 250 ppm, assessed after 13 days, read-out: mortality

SMILES | mortality at 250 ppm [%]
CC(C)NC(=O)c1cccc2nn(-c3cccnc3)cc12 [Compound 8, N-(1-methylethyl)-2-(3-pyridinyl)-2H-indazole-4-carboxamide] | ≥ 50
COC(=O)NNC(=O)c1ccc2nn(-c3cccnc3)cc2c1 [Compound 42, methyl 2-[[2-(3-pyridinyl)-2H-indazol-5-yl]carbonyl]hydrazinecarboxylate] | ≥ 50

tested on: cotton melon aphid (Aphis gossypii (Glover)); experiment: Test D: control of cotton melon aphid on cotton plant (spray, contact and/or systemic); assay type: in vivo; conditions: 144 h, sprayed at 50 ppm, assessed after 6 days
Protocol: as §1
For evaluating control of cotton melon aphid (Aphis gossypii (Glover)) through contact and/or systemic means, the test unit consisted of a small open container with a 6-7-day-old cotton plant inside. This was pre-infested with 30-40 insects on a piece of leaf according to the cut-leaf method, and the soil of the test unit was covered with a layer of sand.
Test compounds were formulated and sprayed at 250 and/or 50 ppm. After spraying, the test units were maintained in a growth chamber for 6 days at 19° C. and 70% relative humidity. Each test unit was then visually assessed for insect mortality.

SMILES | mortality at 50 ppm [%]
CC(C)NC(=O)c1cccc2nn(-c3cccnc3)cc12 [Compound 8, N-(1-methylethyl)-2-(3-pyridinyl)-2H-indazole-4-carboxamide] | ≥ 80
O=C(NC1CC1)c1cccc2nn(-c3cccnc3)cc12 [Compound 14, N-cyclopropyl-2-(3-pyridinyl)-2H-indazole-4-carboxamide] | ≥ 80
O=C(NC1CCCCC1)c1cccc2nn(-c3cccnc3)cc12 [Compound 16, N-cyclohexyl-2-(3-pyridinyl)-2H-indazole-4-carboxamide] | ≥ 80
O=C(NCC(F)(F)F)c1cccc2nn(-c3cccnc3)cc12 [Compound 19, 2-(3-pyridinyl)-N-(2,2,2-trifluoroethyl)-2H-indazole-4-carboxamide] | ≥ 80
O=C(NCC1CCCO1)c1ccc2nn(-c3cccnc3)cc2c1 (stereo not shown) [Compound 41, 2-(3-pyridinyl)-N-[(tetrahydro-2-furanyl)methyl]-2H-indazole-5-carboxamide] | ≥ 80
COC(=O)NNC(=O)c1ccc2nn(-c3cccnc3)cc2c1 [Compound 42, methyl 2-[[2-(3-pyridinyl)-2H-indazol-5-yl]carbonyl]hydrazinecarboxylate] | ≥ 80
O=C(NCC1CC1(F)F)c1ccc2nn(-c3cccnc3)cc2c1 (stereo not shown) [Compound 51, N-[(2,2-difluorocyclopropyl)methyl]-2-(3-pyridinyl)-2H-indazole-5-carboxamide] | ≥ 80
CC(F)(F)CNC(=O)c1ccc2nn(-c3cccnc3)cc2c1 [Compound 54, N-(2,2-difluoropropyl)-2-(3-pyridinyl)-2H-indazole-5-carboxamide] | ≥ 80
O=C(NCc1ncccn1)c1ccc2nn(-c3cccnc3)cc2c1 [Compound 55, 2-(3-pyridinyl)-N-(2-pyrimidinylmethyl)-2H-indazole-5-carboxamide] | ≥ 80
Cc1cnc(CNC(=O)c2ccc3nn(-c4cccnc4)cc3c2)cn1 [Compound 76, N-[(5-methyl-2-pyrazinyl)methyl]-2-(3-pyridinyl)-2H-indazole-5-carboxamide] | ≥ 80

same assay, conditions: 144 h, sprayed at 250 ppm, assessed after 6 days

SMILES | mortality at 250 ppm [%]
CC(C)NC(=O)c1cccc2nn(-c3cccnc3)cc12 [Compound 8, N-(1-methylethyl)-2-(3-pyridinyl)-2H-indazole-4-carboxamide] | ≥ 80
O=C(NC1CC1)c1cccc2nn(-c3cccnc3)cc12 [Compound 14, N-cyclopropyl-2-(3-pyridinyl)-2H-indazole-4-carboxamide] | ≥ 80
O=C(NC1CCCCC1)c1cccc2nn(-c3cccnc3)cc12 [Compound 16, N-cyclohexyl-2-(3-pyridinyl)-2H-indazole-4-carboxamide] | ≥ 80
O=C(NCC(F)(F)F)c1cccc2nn(-c3cccnc3)cc12 [Compound 19, 2-(3-pyridinyl)-N-(2,2,2-trifluoroethyl)-2H-indazole-4-carboxamide] | ≥ 80
O=C(NCC1CCCO1)c1ccc2nn(-c3cccnc3)cc2c1 (stereo not shown) [Compound 41, 2-(3-pyridinyl)-N-[(tetrahydro-2-furanyl)methyl]-2H-indazole-5-carboxamide] | ≥ 80
O=C(NCC1CC1(F)F)c1ccc2nn(-c3cccnc3)cc2c1 (stereo not shown) [Compound 51, N-[(2,2-difluorocyclopropyl)methyl]-2-(3-pyridinyl)-2H-indazole-5-carboxamide] | ≥ 80
CC(F)(F)CNC(=O)c1ccc2nn(-c3cccnc3)cc2c1 [Compound 54, N-(2,2-difluoropropyl)-2-(3-pyridinyl)-2H-indazole-5-carboxamide] | ≥ 80
O=C(NCc1ncccn1)c1ccc2nn(-c3cccnc3)cc2c1 [Compound 55, 2-(3-pyridinyl)-N-(2-pyrimidinylmethyl)-2H-indazole-5-carboxamide] | ≥ 80
O=C(NCC1CCCO1)c1ccc2nn(-c3ccc[n+]([O-])c3)cc2c1 (stereo not shown) [Compound 462] | ≥ 80

tested on: potato leafhopper (Empoasca fabae (Harris)); experiment: Test B: control of potato leafhopper on Soleil bean plant (spray, contact and/or systemic); assay type: in vivo; conditions: 144 h, sprayed at 250 ppm, assessed after 6 days
Protocol: as §1
For evaluating control of potato leafhopper (Empoasca fabae (Harris)) through contact and/or systemic means, the test unit consisted of a small open container with a 5-6-day-old Soleil bean plant (primary leaves emerged) inside. White sand was added to the top of the soil, and one of the primary leaves was excised prior to application of the test compound.
Test compounds were formulated and sprayed at 250 and/or 50 ppm. After spraying of the formulated test compound, the test units were allowed to dry for 1 hour before they were post-infested with 5 potato leafhoppers (18-to-21-day-old adults). […] Each test unit was then visually assessed for insect mortality.

SMILES | mortality at 250 ppm [%]
O=C(NCC(F)(F)F)c1cccc2nn(-c3ccc[n+]([O-])c3)cc12 [Compound 466] | ≥ 80

tested on: green peach aphid (Myzus persicae (Sulzer)); experiment: Test C: control of green peach aphid on radish plant (spray, contact and/or systemic); assay type: in vivo; conditions: 144 h
Protocol: as §1
For evaluating control of green peach aphid (Myzus persicae (Sulzer)) through contact and/or systemic means, the test unit consisted of a small open container with a 12-15-day-old radish plant inside. This was pre-infested by placing on a leaf of the test plant 30-40 aphids on a piece of leaf excised from a culture plant (cut-leaf method). The aphids moved onto the test plant as the leaf piece desiccated. After pre-infestation, the soil of the test unit was covered with a layer of sand.
Test compounds were formulated and sprayed at 250 and/or 50 ppm. After spraying of the formulated test compound, each test unit was allowed to dry for 1 hour and then a black, screened cap was placed on top. The test units were held for 6 days in a growth chamber at 19-21° C. and 50-70% relative humidity. Each test unit was then visually assessed for insect mortality.

SMILES | mortality at 50 ppm [%] | mortality at 250 ppm [%]
O=C(NCCCl)c1ccc2nn(-c3cccnc3)cc2c1 [Compound 463] | ≥ 80 | ≥ 80

same assay, conditions: 144 h, sprayed at 50 ppm, assessed after 6 days, read-out: mortality

SMILES | mortality at 50 ppm [%]
CC(C)NC(=O)c1cccc2nn(-c3cccnc3)cc12 [Compound 8, N-(1-methylethyl)-2-(3-pyridinyl)-2H-indazole-4-carboxamide] | ≥ 80
O=C(NC1CC1)c1cccc2nn(-c3cccnc3)cc12 [Compound 14, N-cyclopropyl-2-(3-pyridinyl)-2H-indazole-4-carboxamide] | ≥ 80
O=C(NC1CCCCC1)c1cccc2nn(-c3cccnc3)cc12 [Compound 16, N-cyclohexyl-2-(3-pyridinyl)-2H-indazole-4-carboxamide] | ≥ 80
O=C(NCC(F)(F)F)c1cccc2nn(-c3cccnc3)cc12 [Compound 19, 2-(3-pyridinyl)-N-(2,2,2-trifluoroethyl)-2H-indazole-4-carboxamide] | ≥ 80
O=C(NCC1CCCO1)c1ccc2nn(-c3cccnc3)cc2c1 (stereo not shown) [Compound 41, 2-(3-pyridinyl)-N-[(tetrahydro-2-furanyl)methyl]-2H-indazole-5-carboxamide] | ≥ 80
COC(=O)NNC(=O)c1ccc2nn(-c3cccnc3)cc2c1 [Compound 42, methyl 2-[[2-(3-pyridinyl)-2H-indazol-5-yl]carbonyl]hydrazinecarboxylate] | ≥ 80
O=C(NCC1CC1(F)F)c1ccc2nn(-c3cccnc3)cc2c1 (stereo not shown) [Compound 51, N-[(2,2-difluorocyclopropyl)methyl]-2-(3-pyridinyl)-2H-indazole-5-carboxamide] | ≥ 80
CC(F)(F)CNC(=O)c1ccc2nn(-c3cccnc3)cc2c1 [Compound 54, N-(2,2-difluoropropyl)-2-(3-pyridinyl)-2H-indazole-5-carboxamide] | ≥ 80
O=C(NCc1ncccn1)c1ccc2nn(-c3cccnc3)cc2c1 [Compound 55, 2-(3-pyridinyl)-N-(2-pyrimidinylmethyl)-2H-indazole-5-carboxamide] | ≥ 80
Cc1cnc(CNC(=O)c2ccc3nn(-c4cccnc4)cc3c2)cn1 [Compound 76, N-[(5-methyl-2-pyrazinyl)methyl]-2-(3-pyridinyl)-2H-indazole-5-carboxamide] | ≥ 80
CSCCNC(=O)c1cccc2nc(-c3cccnc3)sc12 [Compound 84, N-[2-(methylthio)ethyl]-2-(3-pyridinyl)-7-benzothiazolecarboxamide] | ≥ 80
O=C(NCC1CCCO1)c1ccc2nn(-c3ccc[n+]([O-])c3)cc2c1 (stereo not shown) [Compound 462] | ≥ 80

same assay, conditions: 144 h, sprayed at 250 ppm, assessed after 6 days, read-out: mortality

SMILES | mortality at 250 ppm [%]
CC(C)NC(=O)c1cccc2nn(-c3cccnc3)cc12 [Compound 8, N-(1-methylethyl)-2-(3-pyridinyl)-2H-indazole-4-carboxamide] | ≥ 80
O=C(NC1CC1)c1cccc2nn(-c3cccnc3)cc12 [Compound 14, N-cyclopropyl-2-(3-pyridinyl)-2H-indazole-4-carboxamide] | ≥ 80
O=C(NC1CCCCC1)c1cccc2nn(-c3cccnc3)cc12 [Compound 16, N-cyclohexyl-2-(3-pyridinyl)-2H-indazole-4-carboxamide] | ≥ 80
O=C(NCC(F)(F)F)c1cccc2nn(-c3cccnc3)cc12 [Compound 19, 2-(3-pyridinyl)-N-(2,2,2-trifluoroethyl)-2H-indazole-4-carboxamide] | ≥ 80
O=C(NCC1CCCO1)c1ccc2nn(-c3cccnc3)cc2c1 (stereo not shown) [Compound 41, 2-(3-pyridinyl)-N-[(tetrahydro-2-furanyl)methyl]-2H-indazole-5-carboxamide] | ≥ 80
COC(=O)NNC(=O)c1ccc2nn(-c3cccnc3)cc2c1 [Compound 42, methyl 2-[[2-(3-pyridinyl)-2H-indazol-5-yl]carbonyl]hydrazinecarboxylate] | ≥ 80
O=C(NCC1CC1(F)F)c1ccc2nn(-c3cccnc3)cc2c1 (stereo not shown) [Compound 51, N-[(2,2-difluorocyclopropyl)methyl]-2-(3-pyridinyl)-2H-indazole-5-carboxamide] | ≥ 80
CC(F)(F)CNC(=O)c1ccc2nn(-c3cccnc3)cc2c1 [Compound 54, N-(2,2-difluoropropyl)-2-(3-pyridinyl)-2H-indazole-5-carboxamide] | ≥ 80
O=C(NCc1ncccn1)c1ccc2nn(-c3cccnc3)cc2c1 [Compound 55, 2-(3-pyridinyl)-N-(2-pyrimidinylmethyl)-2H-indazole-5-carboxamide] | ≥ 80
Cc1cnc(CNC(=O)c2ccc3nn(-c4cccnc4)cc3c2)cn1 [Compound 76, N-[(5-methyl-2-pyrazinyl)methyl]-2-(3-pyridinyl)-2H-indazole-5-carboxamide] | ≥ 80
CSCCNC(=O)c1cccc2nc(-c3cccnc3)sc12 [Compound 84, N-[2-(methylthio)ethyl]-2-(3-pyridinyl)-7-benzothiazolecarboxamide] | ≥ 80
O=C(NCC1CCCO1)c1ccc2nn(-c3ccc[n+]([O-])c3)cc2c1 (stereo not shown) [Compound 462] | ≥ 80

— patent US11578085B2, “Heterocycle-substituted bicyclic azole pesticides” (FMC CORPORATION, priority 2013, dated 2023)
